Data taken from US8426406B2, “Glucocorticoid receptor agonist comprising 2,2,4-trimethyl-6-phenyl-1,2-dihydroquinoline derivatives having substituted oxy group” (Santen Pharmaceutical Co., Ltd., priority 2008, dated 2013).

Each molecule was assayed on IL-6 production induced by lipopolysaccharide (LPS) in human corneal epithelial cells (assay: Evaluation test for GR agonist activity: inhibition of LPS-induced IL-6 production in human corneal epithelial cells (HCE-T)). Details: Corneal epithelial cell, 10 μL of 100 μM test compound solution per well, 4 hours incubation, efficacy relative to DEX.
Assay type: cell-based
Experimental: In order to evaluate a GR agonist activity of the present compound, the inhibitory effects on the IL-6 production induced by lipopolysaccharide (LPS) in human corneal epithelial cells. IL-6 levels in the conditioned medium were measured using the HTRF human IL-6 Kit (boehringer-Ingelheim, Cat No. 62IL6PEB), and the procedure was carried out according to the protocol attached to the kit. Hereinafter, the specific method will be described.
LPS solution: After LPS was dissolved in phosphate buffer solution (hereinafter referred to as PBS(−)), the resulting solution was diluted with 10% FBS-DMEM/F12 medium, whereby a 1 μg/mL LPS solution was prepared.
After a test compound was dissolved in dimethylsulfoxide (hereinafter referred to as DMSO), the resulting solution was diluted with 10% FBS-DMEM/F12 medium, whereby a 100 μM test compound solution was prepared. A 100 μM DEX solution was prepared by the same method, and the inhibitory ratio of IL-6 production of DEX was evaluated to use for calculating efficacy (% DEX).
Used cell: SV40-immortalized human corneal epithelial cells (HCE-T) (RIKEN)
1) HCE-T cells were harvested, and seeded at 2.0×10^4 cells/0.1 mL/well in a 96-well plate.
2) After incubation overnight, the medium was removed and a 80 μL of new 10% FBS-DMEM/Ham's F12 medium was added into each well.
3) A 10 μL of test compounds solution was added into each well.
4) A 10 μL of LPS solution was added into each well.
5) As a negative control, a 10 μL of 10% FBS-DMEM/Ham's F12 medium was added into each well instead of a test compound solution and a LPS solution.
6) As a positive control, a 10 μL of 10% FBS-DMEM/Ham's F12 medium containing 1% DMSO was added into each well instead of a test compound solution.
7) After 4 hours incubation, supernatants were collected and IL-6 levels in the supernatants were quantitated using the HTRF human IL-6 Kit.
8) The inhibition ratio of IL-6 production (%) was calculated according to the following equation.
The inhibition ratio of IL-6 production (%) was calculated according to the following equation. The inhibition ratio of IL-6 production(%)=100×[1−(IL-6 level in each group−mean value of IL-6 level in negative control)/(mean value of IL-6 level in positive control−mean value of IL-6 level in negative control)](%)
Furthermore, the inhibition ratio of IL-6 production (efficacy (% DEX)) was also calculated according to the following equation. Efficacy(% DEX)=100×{(mean value of IL-6 inhibition in compound-treated group)/(mean value of IL-6 inhibition in DEX-treated group)}(%) (Result and Discussion)

`COC(=O)c1cccc(C(=O)Oc2ccc(-c3ccc4c(c3CNc3ccccc3OC)C(C)=CC(C)(C)N4)c(OC)c2)c1` [Compound 1-107, 6-[2-Methoxy-4-(3-methoxycarbonylbenzoyloxy)phenyl]-5-(2-methoxyphenylaminomethyl)-2,2,4-trimethyl-l,2-dihydroquinoline] was tested. Which Emax did it give?
Its Emax is 85%.

`COc1cc(OC(=O)c2cccnc2OC)ccc1-c1ccc2c(c1COC(=O)c1ccc(C)s1)C(C)=CC(C)(C)N2` [Compound 1-166, 6-[2-Methoxy-4-(2-methoxypyridin-3-ylcarbonyloxy)phenyl]-5-(5-methylthiophen-2-ylcarbonyloxymethyl)-2,2,4-trimethyl-1,2-dihydroquinoline] was tested. Which Emax did it give?
Its Emax is 91%.

With `COc1cc(OC(=O)c2occc2C)ccc1-c1ccc2c(c1CNc1cc(F)ccc1C)C(C)=CC(C)(C)N2` [Compound 1-126, 5-(5-Fluoro-2-methylphenylaminomethyl)-6-[2-methoxy-4-(3-methylfuran-2-ylcarbonyloxy)phenyl]-2,2,4-trimethyl-1,2-dihydroquinoline] as the molecule, how does the Emax read?
The Emax was 81%.

How did the Emax turn out when `COc1cc(OC(=O)C(C)(C)C)ccc1-c1ccc2c(c1COc1cc(F)ccc1C)C(C)=CC(C)(C)N2` [Compound 1-58, 6-(4-t-Butylcarbonyloxy-2-methoxyphenyl)-5-(5-fluoro-2-methylphenoxymethyl)-2,2,4-trimethyl-1,2-dihydroquinoline] was run?
Its Emax is 76%.

`COc1cc(OC(=O)c2cccnc2C)ccc1-c1ccc2c(c1COC(=O)c1ccc(C)s1)C(C)=CC(C)(C)N2` [Compound 1-153, 6-[2-Methoxy-4-(2-methylpyridin-3-ylcarbonyloxy)phenyl]-5-(5-methylthiophen-2-ylcarbonyloxymethyl)-2,2,4-trimethyl-1,2-dihydroquinoline] was tested. Which Emax did it give?
Its Emax is 89%.

`COc1ccccc1C(=O)Oc1ccc(-c2ccc3c(c2COc2cc(F)ccc2C)C(C)=CC(C)(C)N3)c(OC)c1` [Compound 1-6, 5-(5-Fluoro-2-methylphenoxymethyl)-6-[2-methoxy-4-(2-methoxybenzoyloxy)phenyl]-2,2,4-trimethyl-1,2-dihydroquinoline] was tested. Which Emax did it give?
Its Emax is 93%.

With `COc1cc(OC(=O)c2ccc(Cl)cc2)ccc1-c1ccc2c(c1COC(=O)c1ccc(C)s1)C(C)=CC(C)(C)N2` [Compound 1-141, 6-[4-(4-Chlorobenzoyloxy)-2-methoxyphenyl]-5-(5-methylthiophen-2-ylcarbonyloxymethyl)-2,2,4-trimethyl-1,2-dihydroquinoline] as the molecule, how does the Emax read?
Its Emax is 78%.

`COc1ccccc1NCc1c(-c2ccc(OC(=O)c3ccoc3)cc2OC)ccc2c1C(C)=CC(C)(C)N2` [Compound 1-95, 6-[4-(Furan-3-ylcarbonyloxy)-2-methoxyphenyl]-5-(2-methoxyphenylaminomethyl)-2,2,4-trimethyl-1,2-dihydroquinoline] was tested. Which Emax did it give?
The Emax was 87%.

For `COc1cc(OC(=O)C(C)C)ccc1-c1ccc2c(c1COC(=O)c1ccc(C)s1)C(C)=CC(C)(C)N2` [Compound 1-164, 6-(4-Isopropylcarbonyloxy-2-methoxyphenyl)-5-(5-methylthiophen-2-ylcarbonyloxymethyl)-2,2,4-trimethyl-1,2-dihydroquinoline], which Emax is on record?
The Emax was 85%.

`COc1ccc(C(=O)OCc2c(-c3ccc(OC(=O)c4cccnc4)cc3OC)ccc3c2C(C)=CC(C)(C)N3)cc1` [Compound 1-157, 5-(4-Methoxybenzoyloxymethyl)-6-[2-methoxy-4-(pyridin-3-ylcarbonyloxy)phenyl]-2,2,4-trimethyl-1,2-dihydroquinoline] was tested. Which Emax did it give?
Its Emax is 76%.

For `CCS(=O)(=O)Oc1ccc(-c2ccc3c(c2COC(=O)c2ccc(C)s2)C(C)=CC(C)(C)N3)c(OC)c1` [Compound 4-32, 6-(4-Ethylsulfonyloxy-2-methoxyphenyl)-5-(5-methylthiophen-2-ylcarbonyloxymethyl)-2,2,4-trimethyl-1,2-dihydroquinoline], which Emax is on record?
The Emax was 77%.

With `CCCS(=O)(=O)Oc1ccc(-c2ccc3c(c2CNc2cc(F)ccc2C)C(C)=CC(C)(C)N3)c(OC)c1` [Compound 4-21, 5-(5-Fluoro-2-methylphenylaminomethyl)-6-(2-methoxy-4-propylsulfonyloxyphenyl)-2,2,4-trimethyl-1,2-dihydroquinoline] as the molecule, how does the Emax read?
Its Emax is 82%.

Which Emax does the source give for `COc1cc(OC(=O)c2ccccc2SC)ccc1-c1ccc2c(c1COc1cc(F)ccc1C)C(C)=CC(C)(C)N2` [Compound 1-38] here?
Its Emax is 75%.

Which Emax does the source give for `COc1cc(OC(=O)c2ccccc2Cl)ccc1-c1ccc2c(c1CNc1cc(F)ccc1C)C(C)=CC(C)(C)N2` [Compound 1-98, 6-[4-(2-Chlorobenzoyloxy)-2-methoxyphenyl]-5-(5-fluoro-2-methylphenylaminomethyl)-2,2,4-trimethyl-1,2-dihydroquinoline] here?
Its Emax is 78%.

`COc1cc(OC(=O)N2CCOCC2)ccc1-c1ccc2c(c1COC(=O)c1ccc(C)s1)C(C)=CC(C)(C)N2` [Compound 6-26, 6-[2-Methoxy-4-(morpholin-4-ylcarbonyloxy)phenyl]-5-(5-methylthiophen-2-ylcarbonyloxymethyl)-2,2,4-trimethyl-1,2-dihydroquinoline] was tested. Which Emax did it give?
Its Emax is 84%.

How did the Emax turn out when `COc1cc(OC(=O)c2cccnc2)ccc1-c1ccc2c(c1COc1cc(F)ccc1C)C(C)=CC(C)(C)N2` [Compound 1-8, 5-(5-Fluoro-2-methylphenoxymethyl)-6-[2-methoxy-4-(pyridin-3-ylcarbonyloxy)phenyl]-2,2,4-trimethyl-1,2-dihydroquinoline] was run?
The Emax was 94%.

`COc1cc(OC(=O)c2ccc(C)nc2)ccc1-c1ccc2c(c1COc1cc(F)ccc1C)C(C)=CC(C)(C)N2` [Compound 1-55, 5-(5-Fluoro-2-methylphenoxymethyl)-6-[2-methoxy-4-(6-methylpyridin-3-ylcarbonyloxy)phenyl]-2,2,4-trimethyl-1,2-dihydroquinoline] was tested. Which Emax did it give?
The Emax was 76%.

Which Emax does the source give for `COc1cc(OC(=O)c2cscn2)ccc1-c1ccc2c(c1COC(=O)c1ccc(C)s1)C(C)=CC(C)(C)N2` [Compound 1-155, 6-[2-Methoxy-4-(thiazol-4-ylcarbonyloxy)phenyl]-5-(5-methylthiophen-2-ylcarbonyloxymethyl)-2,2,4-trimethyl-1,2-dihydroquinoline] here?
The Emax was 83%.

For `COc1cc(OC(=O)c2ccco2)ccc1-c1ccc2c(c1CNc1cc(F)ccc1C)C(C)=CC(C)(C)N2` [Compound 1-106, 5-(5-Fluoro-2-methylphenylaminomethyl)-6-[4-(furan-2-ylcarbonyloxy)-2-methoxyphenyl]-2,2,4-trimethyl-1,2-dihydroquinoline], which Emax is on record?
Its Emax is 82%.

Which Emax does the source give for `COc1cc(OC(=O)c2ccccc2OC(C)=O)ccc1-c1ccc2c(c1COC(=O)c1ccc(C)s1)C(C)=CC(C)(C)N2` [Compound 1-165, 6-[4-(2-Acetoxybenzoyloxy)-2-methoxyphenyl]-5-(5-methylthiophen-2-ylcarbonyloxymethyl)-2,2,4-trimethyl-1,2-dihydroquinoline] here?
Its Emax is 93%.

`COc1ccccc1NCc1c(-c2ccc(OC(=O)c3cccnc3OC)cc2OC)ccc2c1C(C)=CC(C)(C)N2` [Compound 1-117, 6-[2-Methoxy-4-(2-methoxypyridin-3-ylcarbonyloxy)phenyl]-5-(2-methoxyphenylaminomethyl)-2,2,4-trimethyl-1,2-dihydroquinoline] was tested. Which Emax did it give?
The Emax was 95%.

For `COc1cc(OC(=O)c2ccoc2)ccc1-c1ccc2c(c1COC(=O)c1ccc(C)s1)C(C)=CC(C)(C)N2` [Compound 1-148, 6-[4-(Furan-3-ylcarbonyloxy)-2-methoxyphenyl]-5-(5-methylthiophen-2-ylcarbonyloxymethyl)-2,2,4-trimethyl-1,2-dihydroquinoline], which Emax is on record?
The Emax was 86%.

Which Emax does the source give for `COc1cc(OC(=O)c2cccnc2C)ccc1-c1ccc2c(c1CNc1cc(F)ccc1C)C(C)=CC(C)(C)N2` [Compound 1-122, 5-(5-Fluoro-2-methylphenylaminomethyl)-6-[2-methoxy-4-(2-methylpyridin-3-ylcarbonyloxy)phenyl]-2,2,4-trimethyl-1,2-dihydroquinoline] here?
The Emax was 89%.

`COc1ccc([N+](=O)[O-])cc1OCc1c(-c2ccc(OC(=O)c3ccsc3)cc2OC)ccc2c1C(C)=CC(C)(C)N2` [Compound 1-81, 5-(2-Methoxy-5-nitrophenoxymethyl)-6-[2-methoxy-4-(thiophen-3-ylcarbonyloxy)phenyl]-2,2,4-trimethyl-1,2-dihydroquinoline] was tested. Which Emax did it give?
Its Emax is 76%.

`COc1cc(OC(=O)N(C)C)ccc1-c1ccc2c(c1COC(=O)c1ccc(C)s1)C(C)=CC(C)(C)N2` [Compound 6-37, 6-(4-Dimethylaminocarbonyloxy-2-methoxyphenyl)-5-(5-methylthiophen-2-ylcarbonyloxymethyl)-2,2,4-trimethyl-1,2-dihydroquinoline] was tested. Which Emax did it give?
Its Emax is 85%.
